Measurements reported in US5631259A, “Cycloalkltriols containing cyclic substituents, processes and intermediate products for their preparation and their use as antiviral and antiparasitic agents” (priority 1991, dated 1997).

Key:
in vitro = conditions: human, hela cells
Pneumocystis carinii = Pneumocystis carinii pneumonia in dexamethasone-treated rats, bronchial lavage evaluated with Pneumocystis carinii test kit; format: in vivo, Spraque-Dawley rats; conditions: Monday, Wednesday and Friday for two weeks
Experimental: Pneumocystis carinii--Description of the experiment and results
Spraque-Dawley rats, 200-220 g, were collected into groups of 10 animals and treated with dexamethasone 1.5 mg/ml; of loxacin 0.2 mg/rat via the drinking water in order to induce the outbreak of pneumonia caused by Pneumocystis carinii.
After 7 weeks, the dexamethasone treatment was stopped and the preparation treatment was started.
Treatment was carried out every Monday, Wednesday and Friday for two weeks as follows:
2. pentamidine 20 mg/kg i.m.
3. pentamidine 40 mg/kg i.m.
After the two treatment weeks, a bronchial lavage was performed on the animals under Nembutal anesthesia.
The bronchial suspensions obtained were worked up and evaluated using the Pneumocystis carinii test kit from Progen Biotechnik GmbH, Heidelberg, Germany.

Nc1ncnc2c1ncn2[C@@H]1C[C@H](O)[C@@H](O)[C@H]1O (racemic) [Example 3.1.1, 9-[(1RS,2SR,3RS,4SR)-2,3,4-trihydroxycyclo-pent-1-yl]adenine]
MNTC (in vitro): > 400 µg/mL

N=C(N)c1ccc(OCCCCCOc2ccc(C(=N)N)cc2)cc1 [pentamidine]
Reduction (%) (Pneumocystis carinii; 20 mg/kg i.m.): 37.7%
Reduction (%) (Pneumocystis carinii; 40 mg/kg i.m.): 16.9%

CNc1ncnc2c1ncn2[C@H]1C[C@@H](O)[C@H](O)[C@@H]1O (relative stereo) [Example 3.3, N^6-methyl-9-[(1RS,2SR,3RS,4SR)-trihydroxy-cyclopent-1-yl]adenine]
MNTC (in vitro): > 400 µg/mL

O=c1c(Cl)c(Cl)cnn1[C@@H]1C[C@H](O)[C@@H](O)[C@H]1O (racemic) [Example 3.10.1, 4,5-dichloro-2-[(1RS,2SR,3RS,4SR)-2,3,4-trihydroxy-cyclopent-1-yl]pyridazin-3(2H)-one]
Reduction (%) (Pneumocystis carinii; 20 mg/kg oral): 22.9%
